Results: PMC5936786, “Discovery of Natural Products as Novel and Potent FXR Antagonists by Virtual Screening” (Frontiers in Chemistry, 2018)
“Also recorded” adds a separate entry of the source. Like-named read-outs stand apart in the source and are kept apart here.

Experiments:
estrogen receptor (ER) = details: cited from earlier work; for agonistic profiles against ER (in words): ref Cao et al., 2013
[1] = molecular target: T1, hFXR-LBD (interaction with coactivator SRC-1) (Homo sapiens, UniProt Q96RI1); test: Y2H antagonist assay: inhibition of CDCA-induced SRC-1 recruitment to FXR-LBD (α-galactosidase readout); details: for antagonistic activity against FXR (in words): coactivator recruitment assay; for inhibition at 25 µM: read-out: Inhibition rate % (25 μM), 25 μM compound plus 10 μM CDCA, 24 h, average of triplicate
T1 sequence (Q96RI1 200-472 isoform Q96RI1-2): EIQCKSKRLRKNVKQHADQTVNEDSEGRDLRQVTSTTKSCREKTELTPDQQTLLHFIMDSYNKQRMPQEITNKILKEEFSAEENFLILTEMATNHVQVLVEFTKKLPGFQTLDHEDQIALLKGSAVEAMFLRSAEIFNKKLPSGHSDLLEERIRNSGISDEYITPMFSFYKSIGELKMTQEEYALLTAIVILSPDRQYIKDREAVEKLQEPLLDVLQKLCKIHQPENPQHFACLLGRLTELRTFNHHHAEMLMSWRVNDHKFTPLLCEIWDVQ
Description: We performed Y2H assay to determine the agonistic or antagonistic activities of the compounds. […] The quantitative α-galactosidase activity assays were carried out by using PNP-α-Gal as the substrate according to the Clontech manual. Each experiment was repeated three times independently.
• Vortex the overnight culture tube for 0.5–1 min to disperse cell clumps and then each sample needs 200 μL to record the exact OD600. • Centrifuge the tube at 14,000 rpm (10,000 × g) for 30 s. Incubate 16 μL cell culture medium supernatant with 48 μL PNP-α-Gal at 30°C for 60 min. Be sure to cover microtiter plates with a lid or parafilm to prevent evaporation. • Terminate the reaction by adding 136 μL of 1 μM sodium carbonate. Record the optical density of each sample at 410 nm.
The α-galactosidase activity was calculated according to the following formula:
α−galactosidase activity[milliunits/(mL×cell)]​ ​​​=OD410×Vf×1000/(ε×b)×t×Vi×OD600
The agonistic activation and inhibition rates (%) were calculated as follows:

[2] = molecular target: T2, hFXR-LBD (interaction with coactivator SRC-1) (Homo sapiens, UniProt Q96RI1); test: Y2H agonist assay: SRC-1 recruitment to FXR-LBD (α-galactosidase readout); format: cell-based; details: GAtreated/GADMSO (DMSO = 1.00), average of triplicate
T2 construct: human FXRα-LBD (200-473 AA) was sub-cloned into vector pGBKT-7; expressed in transfected cells; host or cells: Saccharomyces cerevisiae strain AH109 (Clontech), co-transformed with pGBKT7-FXR LBD and pGADT7-SRC-1
T2 sequence (Q96RI1 214-486): T1 sequence (Q96RI1 200-472 isoform Q96RI1-2)
Source text: Each experiment was repeated three times independently.
agonistic activation=GAtreated/GADMSOinhibition rate(%)=GACDCA−GAtreated/GACDCA−GADMSO
where GA indicates α-galactosidase activity.

FXR [3] = details: cited from earlier work
FXR [4] = details: FXR antagonist, cited from earlier work
FXR [5] = details: FXR antagonist, cited from earlier work; remark: listed apart in the source
FXR [6] = system: FXR; parameters: method as in Dussault et al., 2003; details: FXR antagonist; ref Dussault et al., 2003; cited from earlier work
FXR [7] = system: FXR; parameters: method as in Xu et al., 2015; details: FXR antagonist; ref Xu et al., 2015; cited from earlier work

Row | IC50 [1] [µM] | inhibition at 25 µM [1] [%] | Agonistic activation (25 μM) [2] | SMILES | antagonistic activity against FXR (in words) [1] | other results
1 | 1.29 | – | 1.05 | CC(C)(O)c1ccc2c(c1)C(=O)CC1[C@](C)(C(=O)O)CCC[C@]21C (stereo partly drawn) [Compound 2a, 15-Hydroxy-7-oxo-8,11,13-abietatrien-18-oic acid] | – | fold stronger antagonistic activity compared with compound 1a ([1]; vs compound 1a): 10 fold
2 | > 25 | 10.1 | 0.90 | CC(=O)c1ccc2c(c1)C(=O)CC1[C@](C)(C(=O)O)CCC[C@]21C (stereo partly drawn) [Compound 2b, 17-Nor-7,15-dion-8,11,13-abietatrien-18-oic acid] | no observed activity | –
3 | 1.79 | – | 1.03 | O=C(CCCCc1ccccc1)c1ccc(O)cc1 [Compound 3a, Daphneone] | – | fold higher antagonistic activity against FXR compared to guggulsterone [1]: 3 fold
4 | > 25 | 41.4 | 0.76 | O=C(CC(O)CCc1ccccc1)c1ccc(O)cc1 (stereo not drawn) [Compound 3b, Daphneolon] | – | –
5 | 5.46 | > 50 | 1.29 | O=C(/C=C/CCc1ccccc1)c1ccc(O)cc1 [Compound 3c, Daphnenone] | – | –
6 | 14.1 | 52.8 | 1.08 | O=C(O)C=Cc1ccc(O)cc1 [Compound 3d, P-coumaric acid] | moderate antagonistic activities; also recorded: moderate antagonistic effects | agonistic profiles against ER (in words) (estrogen receptor (ER)): agonistic profiles
7 | 19.3 | 60.1 | 0.93 | CCOC(=O)c1ccc(O)cc1 [Compound 3e, Ethylparaben] | moderate antagonistic activities; also recorded: moderate antagonistic effects | agonistic profiles against ER (in words) (estrogen receptor (ER)): agonistic profiles
9 | – | – | – | CC1(CO)CCCC2(C)C1CCC1(C)C2CC(O)C2(C)C3COC(=O)C3=CCC12 (stereo not drawn) [Compound 8] | – | IC50 (FXR [4]; ref Nam et al., 2007): 2.4 µM
10 | – | – | – | CC(C)=CCCC1=C[C@@H](C/C(C)=C/CC[C@@]2(C)C=Cc3cc(O)cc(C)c3O2)OC1=O [Compound 10] | – | IC50 (FXR [4]; ref Choi et al., 2011): 1.5 µM
11 | – | – | – | COc1cc(/C=C2\C(=O)N(c3cccc([N+](=O)[O-])c3)N=C2c2ccccc2)ccc1O [Compound 11] | – | IC50 (FXR [5]; ref Huang et al., 2012): 8.96 µM
12 | – | – | – | CCCCCCCc1c(\C(C)=C/C=C/C(C)=C/C(=O)O)cc(C(C)C)cc1C(C)C [Compound 14] | – | IC50 (FXR [6]): 0.3 µM
13 | – | – | – | CCCCC/C=C/C=C1/C=CC(=O)[C@@H]1C/C=C\CCCC(=O)O [Compound 17] | – | IC50 (FXR [5]; ref Xu et al., 2013): 7.25 µM
14 | – | – | – | CN(C)c1cc(Cl)c(C(=O)N(Cc2ccccc2)c2ccc(O)c(C(C)(C)C)c2)c(Cl)c1 [Compound 18, N-benzyl-N-(3-(tert-butyl)-4-hydroxyphenyl)-2,6-dichloro-4-(dimethylamino) benzamide] | – | IC50 (FXR [7]): 3.4 µM
15 | – | – | – | COC(=O)/C=C/c1cccc(N(Cc2ccc(-c3ccc(N(C)C)cc3)cc2)C(=O)C2CCCCC2)c1 [Fexeramine, Fexaramine] | – | EC50 (FXR [3]; reported FXR modulators, Figure 1, reference not given, read-out: EC50, FXR agonists (Figure 1)): 0.025 µM

Row | SMILES | IC50 [1] [µM] | inhibition at 25 µM [1] [%] | Agonistic activation (25 μM) [2] | antagonistic activity against FXR (in words) [1] | other results
16 | C/C(=C/C(=O)C[C@@H](C)[C@]1(C)CC[C@@]2(C)C3=CCC4C(C)(C)[C@H](O)CC[C@]4(C)[C@@H]3CC=C21)C(=O)O (stereo partly drawn) [Compound 1a, Abiesatrine B] | 13.5 | > 50 | 1.09 | moderate antagonistic activity | agonistic effect against estrogen receptor (ER) (in words) (estrogen receptor (ER); reported in a previous study, no reference given): moderate agonistic effect
17 | C/C(=C/C(=O)C[C@@H](C)[C@H]1CC[C@@]2(C)C3=CCC4C(C)(C)C(=O)CC[C@]4(C)C3CC[C@]12C)C(=O)O (stereo partly drawn) [Compound 1b, (24Z)-3,23-Dioxo-9βH-lanosta-7,24-dien-27-oic acid] | > 25 | 22.7 | 1.12 | no detectable antagonistic activity | –
18 | C/C(=C\CC[C@@H](C)[C@H]1CC[C@@]2(C)C3=CCC4C(C)(C)C(=O)CC[C@]4(C)C3CC[C@]12C)C(=O)O (stereo partly drawn) [Compound 1c, Abiesatrine D] | > 25 | 12.8 | 0.93 | no detectable antagonistic activity | –
